How the values were obtained:
[1] = tested on: C6 cells; experiment: Annexin V-FITC/PI apoptosis study; type: cell-based, murine; conditions: PTX 1 μg/mL, 24 h, flow cytometer, n = 3, mean ± SD
[2] = tested on: intracranial C6 glioma bearing mice; experiment: Anti-glioma efficacy; type: in vivo, Balb/c mice; conditions: versus Saline; PTX 3 mg/kg i.v. x 6; n = 9
[3] = In vitro drug release by dialysis; type: physicochemical; conditions: dialysis (MWCO 8-14 kDa), PBS pH 7.4 with 0.1% Tween 80, 37 °C, 48 h, HPLC, n = 3

With `CC(=O)O[C@H]1C(=O)[C@@]2(C)[C@H]([C@H](OC(=O)c3ccccc3)[C@]3(O)C[C@H](OC(=O)[C@H](O)[C@@H](NC(=O)c4ccccc4)c4ccccc4)C(C)=C1C3(C)C)[C@]1(OC(C)=O)CO[C@@H]1C[C@@H]2O` [free PTX, Paclitaxel] the “apoptosis and necrosis rates of C6 cells” value [1] was 75.65 ± 1.77%, the Increased survival time [2] was 53% and the PTX release behavior [3] was at most 8 h.

Reference: publication PMC4729767 (Theranostics, 2016)
